Drawing on patent publication US9346809B2 (LEO PHARMA A/S, priority 2009, dated 2016), this text covers EC50 for 16 molecules.

Common to all, as to type: biochemical
Assay [1] concerns the target T1, JAK2 (catalytic domain, His-tag) (Homo sapiens, UniProt O60674).
T1 construct: All four purified enzymes contain only the catalytic domain; His (N); purchased Carna Biosciences, Inc; host or cells: baculovirus expression system
Kind of assay: JAK kinase assay (HTRF, phosphorylation of TK substrate-biotin), JAK2. Particulars: ATP at Km (4 μM). Here is the method: (§1) Human baculovirus-expressed JAK1, 2, 3 and TYK2 were purchased from Carna Biosciences, Inc. All four purified enzymes contain only the catalytic domain. JAK1 (aa 850-1154) and TYK2 (aa 871-1187) are expressed with an N-terminally fused GST-tag, and JAK2 and JAK3 with an N-terminally fused His-tag.
(§2) Inhibition of phosphorylation of a synthetic peptide was measured in an HTRF-based assay using the TK substrate-Biotin from the Cisbio HTRFKinEASE TK kit. First, 2 μl of TK solution (TK substrate-biotin in kinase buffer [1× enzymatic buffer from HTRFKinEASE TK kit, 1 mM DTT]) is added to a plate containing 1 μl prediluted compound (final assay concentration DMSO: 0.75%). Then, 5 μl kinase-ATP mix (prepared in kinase buffer) is added to the wells and the plates are incubated at RT for 20-30 min. For all four kinases a concentration of ATP that corresponded to the Km for ATP was used. The final concentrations of buffers, substrate, kinase and ATP were: JAK1: 50 mM Hepes buffer pH 7.0, 0.01% BSA, 10 mM MgCl2, 1 mM DTT, 7 μM ATP, 50 nM SEB, 1 μM TK Substrate-Biotin and 5 ng JAK1; JAK2: 50 mM Hepes buffer pH 7.0, 0.01% BSA, 5 mM MgCl2, 1 mM DTT, 4 μM ATP, 1 μM TK Substrate-Biotin and 0.1 ng JAK2; JAK3: 50 mM Hepes buffer pH 7.0, 0.01% BSA, 5 mM MgCl2, 1 mM DTT, 2 μM ATP, 1 μM TK Substrate-Biotin and 0.3 ng JAK3; TYK2: 50 mM Hepes buffer pH 7.0, 0.01% BSA, 5 mM MgCl2, 1 mM DTT, 13 μM ATP, 50 nM SEB, 1 μM TK Substrate-Biotin and 0.8 ng TYK2. Thereafter, the kinase reaction is stopped by adding 4 μl detection mix (final concentrations: 50 mM Hepes buffer pH 7.0, 0.01% BSA, 0.8 M KF, 20 mM EDTA, 42 nM Streptavidin-XL665 and 1:400 STK Ab Cryptate) and the plates are incubated overnight in the dark. The HTRF signal is read using an Envision plate reader.
(§3) In Table 1 selected JAK kinase inhibitory activities are listed with the following indicators: I: EC50<100 nM, II: 100 nM≦EC50≦500 nM and III: EC50>500 nM

The target in assay [2] is T2, JAK3 (catalytic domain, His-tag) (Homo sapiens, UniProt P52333).
T2 construct: All four purified enzymes contain only the catalytic domain; His (N); purchased Carna Biosciences, Inc; host or cells: baculovirus expression system
T2 sequence (P52333 822-1111 limits assumed): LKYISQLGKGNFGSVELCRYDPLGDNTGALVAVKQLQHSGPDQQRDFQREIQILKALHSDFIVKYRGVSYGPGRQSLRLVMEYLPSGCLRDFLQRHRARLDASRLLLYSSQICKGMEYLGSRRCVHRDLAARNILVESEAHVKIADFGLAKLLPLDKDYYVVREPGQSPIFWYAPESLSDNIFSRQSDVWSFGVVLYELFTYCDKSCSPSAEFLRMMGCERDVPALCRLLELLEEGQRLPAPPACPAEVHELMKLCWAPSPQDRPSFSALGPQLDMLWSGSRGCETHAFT
The assay is described as follows: JAK kinase assay (HTRF, phosphorylation of TK substrate-biotin), JAK3. Particulars: ATP at Km (2 μM). How it is done:
as §1, §2, §3

Assay [3] concerns the target T3, JAK1 (aa 850-1154, catalytic domain, GST-tag) (Homo sapiens, UniProt P23458).
T3 construct: JAK1 (aa 850-1154) and TYK2 (aa 871-1187) are expressed with an N-terminally fused GST-tag; GST (N); purchased Carna Biosciences, Inc; host or cells: baculovirus expression system
The assay is described as follows: JAK kinase assay (HTRF, phosphorylation of TK substrate-biotin), JAK1. Particulars: ATP at Km (7 μM). How it is done: as §1, §2, §3

Assay [4] has as its target T4, TYK2 (aa 871-1187, catalytic domain, GST-tag) (Homo sapiens, UniProt P29597).
T4 construct: JAK1 (aa 850-1154) and TYK2 (aa 871-1187) are expressed with an N-terminally fused GST-tag; GST (N); purchased Carna Biosciences, Inc; host or cells: baculovirus expression system
T4 sequence (P29597 871-1187): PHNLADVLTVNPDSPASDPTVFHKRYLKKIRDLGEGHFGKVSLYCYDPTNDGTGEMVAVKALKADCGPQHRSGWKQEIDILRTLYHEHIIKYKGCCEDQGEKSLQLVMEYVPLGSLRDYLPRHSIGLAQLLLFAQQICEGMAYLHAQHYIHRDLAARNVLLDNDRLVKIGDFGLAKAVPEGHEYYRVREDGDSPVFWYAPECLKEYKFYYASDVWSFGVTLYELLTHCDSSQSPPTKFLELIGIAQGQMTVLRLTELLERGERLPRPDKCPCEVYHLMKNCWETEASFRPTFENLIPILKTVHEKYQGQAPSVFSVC
Kind of assay: JAK kinase assay (HTRF, phosphorylation of TK substrate-biotin), TYK2. Particulars: ATP at Km (13 μM). How it is done: as §1, §2, §3

Where [5] appears, read: read-out: JAK2 kinase inhibitory activity (EC50 indicator).
Setting [6] is: read-out: JAK3 kinase inhibitory activity (EC50 indicator).
[7] abbreviates: read-out: JAK1 kinase inhibitory activity (EC50 indicator).
[8] abbreviates: read-out: TYK2 kinase inhibitory activity (EC50 indicator).
[9] abbreviates: HTRF assay, read-out: JAK2 kinase inhibitory activity (EC50 indicator).
[10] abbreviates: HTRF assay, read-out: JAK3 kinase inhibitory activity (EC50 indicator).
The mark [11] stands for this setting: HTRF assay, read-out: JAK1 kinase inhibitory activity (EC50 indicator).
The mark [12] stands for this setting: HTRF assay, read-out: TYK2 kinase inhibitory activity (EC50 indicator).

The structures appear in SMILES notation. Like-named read-outs stand apart in the source and are kept apart here.

T3 sequence (P23458 850-1154): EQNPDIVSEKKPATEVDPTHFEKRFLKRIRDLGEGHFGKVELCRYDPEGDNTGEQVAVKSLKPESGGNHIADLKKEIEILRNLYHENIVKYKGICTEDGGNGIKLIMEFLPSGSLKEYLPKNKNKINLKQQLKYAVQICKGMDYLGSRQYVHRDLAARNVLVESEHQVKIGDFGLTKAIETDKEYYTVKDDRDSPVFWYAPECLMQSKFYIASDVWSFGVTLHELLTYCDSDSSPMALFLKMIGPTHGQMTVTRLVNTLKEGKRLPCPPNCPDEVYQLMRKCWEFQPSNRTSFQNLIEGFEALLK
T1 sequence (O60674 849-1124 limits assumed): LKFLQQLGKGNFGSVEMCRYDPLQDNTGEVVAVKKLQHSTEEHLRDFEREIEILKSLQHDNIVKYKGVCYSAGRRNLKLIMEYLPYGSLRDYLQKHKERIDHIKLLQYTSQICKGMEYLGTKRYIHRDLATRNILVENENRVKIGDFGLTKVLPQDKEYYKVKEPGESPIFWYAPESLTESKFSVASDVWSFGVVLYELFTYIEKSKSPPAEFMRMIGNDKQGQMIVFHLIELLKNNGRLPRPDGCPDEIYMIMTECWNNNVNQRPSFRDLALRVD

As to `Cc1c[nH]c2ncnc(N3CCN(C(=O)c4cnc5ccccc5n4)C4(CC4)C3)c12` [Example 120, [7-(5-Methyl-7H-pyrrolo[2,3-d]pyrimidin-4-yl)-4,7-diaza-spiro[2.5]oct-4-yl]-quinoxalin-2-yl-methanone], the EC50 in assay [1] (setting [5]), in assay [2] (setting [6]), in assay [3] (setting [7]) and in assay [4] (setting [8]) was over 500 nM in each case.

As for `COc1ncccc1C(=O)N1CCN(c2ncnc3[nH]ccc23)CC12CC2` [Example 216, (2-Methoxy-pyridin-3-yl)-[7-(7H-pyrrolo[2,3-d]pyrimidin-4-yl)-4,7-diaza-spiro[2.5]oct-4-yl]-methanone], the EC50 in assay [1] (setting [9]) was 100 to 500 nM; in assay [2] (setting [10]), over 500 nM; in assay [3] (setting [11]), 100 to 500 nM; in assay [4] (setting [12]), over 500 nM.

Regarding `N#Cc1ccccc1CC(=O)N1CCN(c2ccnc3[nH]ccc23)CC12CC2` [Example 237, 2-{2-Oxo-2-[7-(1H-pyrrolo[2,3-b]pyridin-4-yl)-4,7-diaza-spiro[2.5]oct-4-yl]-ethyl}-benzonitrile], the EC50 in assay [1] (setting [9]) was 100 to 500 nM; in assay [2] (setting [10]) it was 100 to 500 nM; in assay [3] (setting [11]) it was over 500 nM; in assay [4] (setting [12]) it was over 500 nM.

Consider `COc1cnc2[nH]ccc2c1N1CCN(C(=O)c2cccc(C#N)c2)C2(CC2)C1` [Example 287, 3-[7-(5-Methoxy-1H-pyrrolo[2,3-b]pyridin-4-yl)-4,7-diaza-spiro[2.5]octane-4-carbonyl]-benzonitrile], for which the EC50 was 100 to 500 nM in assay [1] (setting [9]), 100 to 500 nM in assay [2] (setting [10]), over 500 nM in assay [3] (setting [11]) and over 500 nM in assay [4] (setting [12]).

In the case of `S=C(c1cc2c(s1)CCC2)N1CCN(c2ncnc3[nH]ccc23)CC12CC2` [Example 440, (5,6-Dihydro-4H-cyclopenta[b]thiophen-2-yl)-[7-(7H-pyrrolo[2,3-d]Pyrimidin-4-yl)-4,7-diaza-spiro[2.5]oct-4-yl]-methanethione], the EC50 in assay [1] (HTRF assay, read-out: JAK2 kinase inhibitory activity (EC50)) is under 100 nM; in assay [2] (HTRF assay, read-out: JAK3 kinase inhibitory activity (EC50)), 100 to 500 nM; in assay [3] (HTRF assay, read-out: JAK1 kinase inhibitory activity (EC50)), under 100 nM; in assay [4] (HTRF assay, read-out: TYK2 kinase inhibitory activity (EC50)) it was 100 to 500 nM.

On to `Cc1sc(C(=O)N2CCN(c3ncnc4[nH]ccc34)CC23CC3)cc1S(N)(=O)=O` [Example 374, 2-Methyl-5-[7-(7H-pyrrolo[2,3-d]pyrimidin-4-yl)-4,7-diaza-spiro[2.5]octane-4-carbonyl]-thiophene-3-sulfonic acid amide], for which the 50% effective concentration (EC50) in assay [1] (setting [9]), in assay [2] (setting [10]), in assay [3] (setting [11]) and in assay [4] (setting [12]) was under 100 nM throughout.

With `N#CCOc1cccc(CC(=O)N2CCN(c3ncnc4[nH]ccc34)CC23CC3)c1` [Example 70, (3-{2-Oxo-2-[7-(7H-pyrrolo[2,3-d]pyrimidin-4-yl)-4,7-diaza-spiro[2.5]oct-4-yl]-ethyl}-phenoxy)-acetonitrile], the EC50 in assay [1] (setting [5]) is 100 to 500 nM; in assay [2] (setting [6]), 100 to 500 nM; in assay [3] (setting [7]), 100 to 500 nM; in assay [4] (setting [8]), over 500 nM.

As for `Cc1c[nH]c2ncnc(N3CCN(C(=O)Cc4ccc(C#N)cc4)C4(CC4)C3)c12` [Example 334, 4-{2-[7-(5-Methyl-7H-pyrrolo[2,3-d]pyrimidin-4-yl)-4,7-diaza-spiro[2.5]oct-4-yl]-2-oxo-ethyl}-benzonitrile], the EC50 in assay [1] (setting [9]) is under 100 nM; in assay [2] (setting [10]), under 100 nM; in assay [3] (setting [11]), 100 to 500 nM; in assay [4] (setting [12]), over 500 nM.

For `NC(=O)c1ccc(C(=O)N2[C@@H]3CC[C@@H]2CN(c2ncnc4[nH]ccc24)C3)cc1` [Example 358, 4-[3-(7H-Pyrrolo[2,3-d]pyrimidin-4-yl)-3,8-diaza-bicyclo[3.2.1]octane-8-carbonyl]-benzamide], the EC50 in assay [1] (setting [9]) was under 100 nM; in assay [2] (setting [10]) it was 100 to 500 nM; in assay [3] (setting [11]) it was under 100 nM; in assay [4] (setting [12]) it was 100 to 500 nM.

On to `O=C(C1CCCO1)N1CCN(c2ncnc3[nH]ccc23)CC12CC2` (stereo not shown) [Example 22, [7-(7H-Pyrrolo[2,3-d]pyrimidin-4-yl)-4,7-diazaspiro[2.5]oct-4-yl]-(tetrahydrofuran-2-yl)methanone], for which the EC50 is under 100 nM in assay [1] (setting [5]), 100 to 500 nM in assay [2] (setting [6]), 100 to 500 nM in assay [3] (setting [7]) and over 500 nM in assay [4] (setting [8]).

As for `CC(C)S(=O)(=O)Nc1ccc(C(=O)N2CCN(c3ncnc4[nH]ccc34)CC23CC3)cc1` [Example 432, Propane-2-sulfonic acid {4-[7-(7H-pyrrolo[2,3-d]pyrimidin-4-yl)-4,7-diaza-spiro[2.5]octane-4-carbonyl]-phenyl}-amide], the 50% effective concentration (EC50) in assay [1] (setting [9]) is under 100 nM; in assay [2] (setting [10]) it was under 100 nM; in assay [3] (setting [11]), under 100 nM; in assay [4] (setting [12]) it was 100 to 500 nM.

Turning to `O=C(c1cc2cccc(F)c2[nH]1)N1CCN(c2ncnc3[nH]ccc23)CC12CC2` [Example 362, (7-Fluoro-1H-indol-2-yl)-[7-(7H-pyrrolo[2,3-d]pyrimidin-4-yl)-4,7-diaza-spiro[2.5]oct-4-yl]-methanone], the EC50 in assay [1] (setting [9]) was under 100 nM; in assay [2] (setting [10]), under 100 nM; in assay [3] (setting [11]), under 100 nM; in assay [4] (setting [12]), 100 to 500 nM.

Regarding `N#Cc1ccc(CC(=O)N2CCN(c3nc(NC(=O)c4ccccc4)nc4[nH]ccc34)CC23CC3)cc1` [Example 98, N-(4-{4-[2-(4-Cyano-phenyl)-acetyl]-4,7-diaza-spiro[2.5]oct-7-yl}-7H-pyrrolo[2,3-d]pyrimidin-2-yl)-benzamide], the EC50 in assay [1] (setting [5]), in assay [2] (setting [6]), in assay [3] (setting [7]) and in assay [4] (setting [8]) was over 500 nM throughout.

Turning to `N#Cc1ccccc1C(=O)N1[C@@H]2CC[C@@H]1CN(c1ncnc3[nH]ccc13)C2` [Example 249, 2-[3-(7H-Pyrrolo[2,3-d]pyrimidin-4-yl)-3,8-diaza-bicyclo[3.2.1]octane-8-carbonyl]-benzonitrile], the EC50 in assay [1] (setting [9]) is under 100 nM; in assay [2] (setting [10]), 100 to 500 nM; in assay [3] (setting [11]), 100 to 500 nM; in assay [4] (setting [12]) it was over 500 nM.

For the molecule `NS(=O)(=O)c1c[nH]c(C(=O)N2CCN(c3ncnc4[nH]ccc34)CC23CC3)c1` [Example 402, 5-[7-(7H-Pyrrolo[2,3-d]pyrimidin-4-yl)-4,7-diaza-spiro[2.5]octane-4-carbonyl]-1H-pyrrole-3-sulfonic acid amide], the EC50 in assay [1] (setting [9]), in assay [2] (setting [10]), in assay [3] (setting [11]) and in assay [4] (setting [12]) was under 100 nM in each case.

Consider `N#Cc1ccc(C(F)(F)C(=O)N2CCN(c3ncnc4[nH]ccc34)CC23CC3)cc1` [Example 64, 4-{1,1-Difluoro-2-oxo-2-[7-(7H-pyrrolo[2,3-d]pyrimidin-4-yl)-4,7-diaza-spiro[2.5]oct-4-yl]-ethyl}-benzonitrile], for which the 50% effective concentration (EC50) in assay [1] (setting [5]) was under 100 nM; in assay [2] (setting [6]), 100 to 500 nM; in assay [3] (setting [7]) it was under 100 nM; in assay [4] (setting [8]) it was over 500 nM.
